Reference: patent publication EP4663198A1, “COMPOSITION CONTAINING CYCLIC PEPTIDE COMPOUND AND SURFACTANT” (CHUGAI SEIYAKU KABUSHIKI KAISHA, priority 2023, dated 2024)

Details: Caco-2, pH 6.5

Papp A→B: 0.0525 ×10⁻⁶ cm/s
Structure (SMILES): CCO[C@@H]1C[C@H]2C(=O)NC3(CCCC3)C(=O)N[C@@H](C3CCCC3)C(=O)N(C)[C@H](C(=O)N(C)C)CC(=O)N(C)[C@@H](CC(C)C)C(=O)N[C@@H]([C@@H](C)CC)C(=O)N(C)CC(=O)N(C)[C@H]3C/C=C\CCN(C3=O)[C@@H](Cc3ccc(C(F)(F)F)cc3)C(=O)N(C)CC(=O)N[C@@H](CCc3cc(F)c(C(F)(F)F)c(F)c3)C(=O)N2C1 [CP01, (2S,8S,12R,14S,20S,23S,27S,30S,36S,38Z)-20-cyclopentyl-8-[2-[3,5-difluoro-4-(trifluoromethyl)phenyl]ethyl]-12-ethoxy-27-isobutyl-N,N,4,22,26,32,35-heptamethyl-30-[(1S)-1-methylpropyl]-3,6,9,15,18,21,25,28,31,34,42-undecaoxo-2-[(4-(trifluoromethyl)phenyl]methyl]spiro[1,4,7,10,16,19,22,26,29,32,35-undecazatricyclo[34.5.1.0^10,14]dotetraconta-38-en-17,1'-cyclopentane]-23-carboxamide]
